{"source": "patent US8211909B2", "about": "“Treatment of antibiotic-resistant bacteria infection” (TaiGen Biotechnology Co., Ltd., priority 2008, dated 2012)", "key": {"[1]": {"system": "methicillin-resistant Staphylococcus aureus", "assay": "MIC by broth microdilution, Taiwan clinical isolates (Compound 1′)", "type": "cell-based", "settings": "for MIC50 / MIC90: Staphylococcus aureus, MRSA", "experimental": "(§1) The Staphylococcus aureus and Streptococcus pneumoniae isolates were obtained by 10 medical centers in all regions of Taiwan. MICs were determined using the broth microdilution method."}, "[2]": {"system": "methicillin-resistant Streptococcus pneumoniae", "assay": "MIC by broth microdilution, Taiwan clinical isolates (Compound 1′)", "type": "cell-based", "settings": "for MIC50 / MIC90: Streptococcus pneumoniae", "experimental": "as §1"}, "[3]": {"system": "Methicillin-resistant Staphylococcus aureus (MRSA) isolates", "assay": "MIC by broth microdilution (CLSI) against CAN-ICU MRSA isolates", "type": "cell-based", "settings": "Staphylococcus aureus; for MIC50: read-out: MIC50; for MIC90: read-out: MIC90", "text": "MRSA isolates (n=193) were obtained as part of the Canadian National Intensive Care Unit (CAN-ICU) Study. 19 medical centers from all regions of Canada with active ICUs participated in the CAN-ICU study included. They were requested to only obtain “clinically significant” specimens from patients with a presumed infectious disease. Surveillance swabs, eye, ear, nose and throat swabs were excluded. Anaerobic organisms and fungal organisms were also excluded.\nFrom September 2005-June 2006 (inclusive), each center collected a maximum of 300 consecutive pathogens isolated from blood, urine, tissue/wound, and respiratory specimens (one pathogen per cultured site per patient) of ICU patients. These isolates were shipped to the reference laboratory (Health Sciences Centre, Winnipeg, Canada) on Amies charcoal swabs, subcultured in appropriate media, and stocked in skim milk at −80° C.\nAll isolates underwent mecA PCR, as well as molecular characterization (including PVL analysis and fingerprinting), as previously described, to assess whether they were community-associated or healthcare-associated (Christianson et al., J Clin Microbiol. 2007, 45 (6): 1904-11; Mulvey et al., J Clin. Microbiol. 2001, 39(10): 3481-5; Mulvey et al., Emerg Infect Dis. 2005,11(6): 844-50; Oliveira et al., Antimicrob Agents Chemother. 2002, 46(7): 2155-61). The isolates were also subtyped using pulsed-field gel electrophoresis (PFGE) following the Canadian standardized protocol as previously described (Mulvey et al., J Clin Microbiol. 2001, 39(10): 3481-5). Their PFGE fingerprints thus obtained were analyzed with BioNumerics v3.5 (Applied Maths St. Marten-Latem, Belgium) using a position tolerance of 1.0 and an optimization of 1.0. Strain relatedness was determined as previously described (Tenover et al., 1995). The fingerprints of the isolates were compared to the national MRSA fingerprint database and were grouped into one of 10 Canadian epidemic MRSA (CMRSA-1, CMRSA-2, etc) as previously described (Mulvey et al., Emerg Infect Dis. 2005,11(6):844-50).\nCompound 1 and other antibiotics were tested for their inhibitory activity against the MRSA isolates using the broth microdilution guidelines as stipulated by the Clinical and Laboratory Standards Institute."}, "[4]": {"system": "Staphylococcus aureus strains (MRSA, hVISA, VISA, VRSA, quinolone-resistant MRSA)", "assay": "MIC by agar dilution against Staphylococcal strains (MRSA, hVISA, VISA, VRSA, quinolone-resistant MRSA)", "type": "cell-based", "settings": "Staphylococcus aureus", "experimental": "Compound 1 was tested for its inhibitory effect against 26 Methicillin-resistant Staphylococcus aureus (MRSA) strains, 2 hetero-Vancomycin intermediate Staphylococcus aureus (hVISA) strains, 24 Vancomycin-intermediate Staphylococcus aureus (VISA) strains, 5 Vancomycin-resistant Staphylococcus aureus (VRSA) strains, and 31 quinolone-resistant Vancomycin-susceptibale MRSA strains with defined mutations in QRDR. These mutations were determined by sequencing analysis of the QRDR (gyrA, gyrB, grlA, and grlB). Efflux testing was performed by the reserpine method (Brenwald, et al., Antimicrob. Agents Chemother. 1998, 42: 2032-2035)."}, "[5]": {"system": "S. pneumoniae", "assay": "CANWARD 2007 gram-positive cocci, CLSI broth microdilution", "type": "cell-based, Streptococcus pneumoniae", "set-up": "MIC50 / MIC90: unit not given here", "experimental": "(§2) From January-December 2007, 12 hospitals across Canada submitted isolates from patients attending hospital clinics, emergency rooms, medical and surgical wards, and intensive care units. 7881 isolates (CANWARD 2007) were collected including 3473 gram-positive cocci. Susceptibility testing for Compound 1 and Levofloxacin was performed using the Clinical and Laboratory Standards Institute broth microdilution."}, "[6]": {"system": "S. aureus (MSSA, CA-MRSA, HA-MRSA, VISA, VRSA)", "assay": "CANWARD 2007 / NARSA gram-positive cocci, CLSI broth microdilution", "type": "cell-based, Staphylococcus aureus", "set-up": "MIC50 / MIC90: unit not given here", "experimental": "as §2"}, "[7]": {"system": "Staphylococcus epidermidis (MSSE, MRSE)", "assay": "CANWARD 2007 gram-positive cocci, CLSI broth microdilution", "type": "cell-based", "set-up": "MIC50 / MIC90: unit not given beside the values", "experimental": "as §2"}, "[8]": {"system": "E. faecalis", "assay": "CANWARD 2007 gram-positive cocci, CLSI broth microdilution", "type": "cell-based", "set-up": "unit not given beside the values", "settings": "E. faecalis (81)", "experimental": "as §2"}, "[9]": {"system": "H. pylori isolates", "assay": "MIC by agar dilution against 200 H. pylori isolates (Taiwan)", "type": "cell-based, Helicobacter pylori", "experimental": "MICs were determined using the agar dilution methods recommended by the Clinical and Laboratory Standards Institute (CLSI-M100-S18)."}, "[10]": {"settings": "MRSA-CIP (R): MRSA-ciprofloxacin resistant strain"}, "[11]": {"settings": "MRSA-CIP (S): MRSA-ciprofloxacin sensitive strain"}, "[12]": {"settings": "MRSP-Levo (R): Levofloxacin resistant strain"}, "[13]": {"settings": "MRSP-Levo (S): Levofloxacin sensitive strain"}, "[14]": {"settings": "MRSA / USA100, USA 100/800 (HA-MRSA)"}, "[15]": {"settings": "MRSA / USA200, USA 200 (HA-MRSA)"}, "[16]": {"settings": "MRSA / USA300, USA 300 (CA-MRSA)"}, "[17]": {"settings": "MRSA / USA400, USA 400 (CA-MRSA)"}, "[18]": {"settings": "MRSA / USA600, USA 600 (HA-MRSA)"}, "[19]": {"settings": "hVISA(2) + VISA (24) + VRSA (5)"}, "[20]": {"settings": "Helicobacter pylori, 200 isolates of H. pylori"}}, "note": "Read-outs that look alike come from different tables or passages of the source.", "data": [{"smiles": "COc1c(N2C[C@H](C)C[C@H](N)C2)ccc2c(=O)c(C(=O)O)cn(C3CC3)c12", "note": "[Compound 1′, (3S,5R)-7-[3-amino-5-methyl-piperidinyl]-1-cyclopropyl-1,4-dihydro-8-methoxy-4-oxo-3-quinolinecarboxylic acid]", "values": [{"measurement": "MIC50", "setting": "[1]; [10]", "value": 1, "unit": "µg/mL"}, {"measurement": "MIC90", "setting": "[1]; [10]", "value": 1, "unit": "µg/mL"}, {"measurement": "MIC50", "setting": "[1]; [11]", "value": 0.03, "unit": "µg/mL"}, {"measurement": "MIC90", "setting": "[1]; [11]", "value": 0.06, "unit": "µg/mL"}, {"measurement": "inhibition (in words)", "setting": "[1]; methicillin-resistant Staphylococcus aureus", "value": "effective"}, {"measurement": "MIC50", "setting": "[2]; [12]", "value": 0.25, "unit": "µg/mL"}, {"measurement": "MIC90", "setting": "[2]; [12]", "value": 1, "unit": "µg/mL"}, {"measurement": "MIC50", "setting": "[2]; [13]", "value": 0.03, "unit": "µg/mL"}, {"measurement": "MIC90", "setting": "[2]; [13]", "value": 0.06, "unit": "µg/mL"}, {"measurement": "inhibition (in words)", "setting": "[2]; methicillin-resistant Streptococcus pneumoniae", "value": "effective"}]}, {"smiles": "C[C@H]1COc2c(N3CCN(C)CC3)c(F)cc3c(=O)c(C(=O)O)cn1c23", "note": "[Levofloxacin]", "values": [{"measurement": "MIC50", "setting": "[3]; [14]", "value": "> 32", "unit": "µg/mL"}, {"measurement": "MIC90", "setting": "[3]; [14]", "value": "> 32", "unit": "µg/mL"}, {"measurement": "MIC50", "setting": "[3]; [15]", "value": 32, "unit": "µg/mL"}, {"measurement": "MIC90", "setting": "[3]; [15]", "value": "> 32", "unit": "µg/mL"}, {"measurement": "MIC50", "setting": "[3]; [16]", "value": 8, "unit": "µg/mL"}, {"measurement": "MIC90", "setting": "[3]; [16]", "value": 8, "unit": "µg/mL"}, {"measurement": "MIC50", "setting": "[3]; [17]", "value": 0.25, "unit": "µg/mL"}, {"measurement": "MIC90", "setting": "[3]; [17]", "value": 0.25, "unit": "µg/mL"}, {"measurement": "MIC50", "setting": "[3]; [18]", "value": 32, "unit": "µg/mL"}, {"measurement": "MIC90", "setting": "[3]; [18]", "value": "> 32", "unit": "µg/mL"}, {"measurement": "MIC50", "setting": "[3]; MRSA (n = 193)", "value": "> 32", "unit": "µg/mL"}, {"measurement": "MIC90", "setting": "[3]; MRSA (n = 193)", "value": "> 32", "unit": "µg/mL"}, {"measurement": "MIC", "setting": "[3]; MRSA (n = 193), read-out: MIC Range Max", "value": "> 32", "unit": "µg/mL"}, {"measurement": "MIC", "setting": "[3]; MRSA (n = 193), read-out: MIC Range Min", "value": 0.25, "unit": "µg/mL"}, {"measurement": "MIC50", "setting": "[4]; MRSA (26)", "value": 0.25, "unit": "µg/mL"}, {"measurement": "MIC90", "setting": "[4]; MRSA (26)", "value": 0.5, "unit": "µg/mL"}, {"measurement": "MIC50", "setting": "[4]; Quinolone-resistant MRSA (31)", "value": 16, "unit": "µg/mL"}, {"measurement": "MIC90", "setting": "[4]; Quinolone-resistant MRSA (31)", "value": 32, "unit": "µg/mL"}, {"measurement": "MIC50", "setting": "[4]; [19]", "value": 16, "unit": "µg/mL"}, {"measurement": "MIC90", "setting": "[4]; [19]", "value": 32, "unit": "µg/mL"}, {"measurement": "MIC", "setting": "[4]; read-out: MIC Range, MRSA (26)", "value": "0.25 to 1", "unit": "µg/mL"}, {"measurement": "MIC50", "setting": "[5]; SPN CipR (29)", "value": 2}, {"measurement": "MIC90", "setting": "[5]; SPN CipR (29)", "value": 16}, {"measurement": "MIC50", "setting": "[5]; SPN PenI (103)", "value": 0.5}, {"measurement": "MIC90", "setting": "[5]; SPN PenI (103)", "value": 1}, {"measurement": "MIC50", "setting": "[5]; SPN PenR (34)", "value": 0.5}, {"measurement": "MIC90", "setting": "[5]; SPN PenR (34)", "value": 2}, {"measurement": "MIC50", "setting": "[5]; SPN PenS (519)", "value": 0.5}, {"measurement": "MIC90", "setting": "[5]; SPN PenS (519)", "value": 1}, {"measurement": "MIC50", "setting": "[5]; SPN-All (656)", "value": 0.5}, {"measurement": "MIC90", "setting": "[5]; SPN-All (656)", "value": 1}, {"measurement": "MIC50", "setting": "[6]; CA-MRSA (23)", "value": 4}, {"measurement": "MIC90", "setting": "[6]; CA-MRSA (23)", "value": 8}, {"measurement": "MIC50", "setting": "[6]; HA-MRSA (91)", "value": ">32/>32"}, {"measurement": "MIC90", "setting": "[6]; HA-MRSA (91)", "value": ">32/>32"}, {"measurement": "MIC50", "setting": "[6]; MSSA (372)", "value": 0.25}, {"measurement": "MIC90", "setting": "[6]; MSSA (372)", "value": 4}, {"measurement": "MIC50", "setting": "[6]; VISA (12), NARSA isolates", "value": "32/>32"}, {"measurement": "MIC90", "setting": "[6]; VISA (12), NARSA isolates", "value": "32/>32"}, {"measurement": "median MIC (single value under head MIC50/MIC90)", "setting": "[6]; VRSA (7), NARSA isolates", "value": 32}, {"measurement": "MIC50", "setting": "[7]; MRSE (9)", "value": ">32/>32"}, {"measurement": "MIC90", "setting": "[7]; MRSE (9)", "value": ">32/>32"}, {"measurement": "MIC50", "setting": "[7]; MSSE (32)", "value": 4}, {"measurement": "MIC90", "setting": "[7]; MSSE (32)", "value": "> 32"}, {"measurement": "MIC50", "setting": "[8]", "value": 2}, {"measurement": "MIC90", "setting": "[8]", "value": "> 32"}, {"measurement": "share of isolates resistant", "setting": "[9]; 200 H. pylori isolates, resistance: amoxicillin MICs≧0.5, clarithromycin ≧1, metronidazole ≧8, ciprofloxacin ≧1, levofloxacin ≧1 μg/mL", "value": 2, "unit": "%"}, {"measurement": "MIC50", "setting": "[9]; [20]", "value": 250, "unit": "µg/mL"}, {"measurement": "MIC90", "setting": "[9]; [20]", "value": 500, "unit": "µg/mL"}, {"measurement": "MIC50/MIC90 (single value printed)", "setting": "[2]; MRSP-Levo (R)", "value": ">128", "unit": "µg/mL"}, {"measurement": "MIC50/MIC90 (single value printed)", "setting": "[2]; MRSP-Levo (S)", "value": 16, "unit": "µg/mL"}]}]}
